Data as given in patent US20230049952A1, “METHODS AND COMPOUNDS FOR RESTORING MUTANT P53 FUNCTION” (PMV Pharmaceuticals, Inc., priority 2020, published 2023).

System: NF-κB signaling pathway in MT373 tumors
Assay: MT373 syngeneic sarcoma model: mouse NF-κB signaling pathway profiling panel
Assay type: in vivo

CCn1c(C#CCNc2ccccc2)cc2cc(CNC3CCN(C)CC3)ccc21 [Compound 1, 1-Anilino-3-{1-ethyl-5-[(1-methyl-4-piperidylamino)methyl]-1H-indol-2-yl}-2-propyne]
Card10 fold increase over or percent reduction vs vehicle control (150 mg/kg BIDx1, 72 h): 1.39 ± 0.49 fold or %
Card11 fold increase over or percent reduction vs vehicle control (150 mg/kg BIDx1, 72 h): 1.52 ± 0.54 fold or %
Casp1 fold increase over or percent reduction vs vehicle control (150 mg/kg BIDx1, 72 h): 9.73 ± 31.75 fold or %
Casp8 fold increase over or percent reduction vs vehicle control (150 mg/kg BIDx1, 72 h): 1.04 ± 0.13 fold or %
Ccl2 fold increase over or percent reduction vs vehicle control (150 mg/kg BIDx1, 72 h): 52.53 ± 13.14 fold or %
Ccl5 fold increase over or percent reduction vs vehicle control (150 mg/kg BIDx1, 72 h): 2.54 ± 37.88 fold or %
Cd27 fold increase over or percent reduction vs vehicle control (150 mg/kg BIDx1, 72 h): 1.53 ± 0.39 fold or %
Cd40 fold increase over or percent reduction vs vehicle control (150 mg/kg BIDx1, 72 h): 20.33 ± 32.50 fold or %
Cflar fold increase over or percent reduction vs vehicle control (150 mg/kg BIDx1, 72 h): 1.10 ± 0.20 fold or %
Chuk fold increase over or percent reduction vs vehicle control (150 mg/kg BIDx1, 72 h): 5.62 ± 25.53 fold or %
Crebbp fold increase over or percent reduction vs vehicle control (150 mg/kg BIDx1, 72 h): 1.12 ± 0.15 fold or %
Csf1 fold increase over or percent reduction vs vehicle control (150 mg/kg BIDx1, 72 h): 3.08 ± 4.37 fold or %
Csf2 fold increase over or percent reduction vs vehicle control (150 mg/kg BIDx1, 72 h): 5.23 ± 19.46 fold or %
Csf3 fold increase over or percent reduction vs vehicle control (150 mg/kg BIDx1, 72 h): 46.68 ± 13.40 fold or %
Egfr fold increase over or percent reduction vs vehicle control (150 mg/kg BIDx1, 72 h): 1.01 ± 0.23 fold or %
Egr1 fold increase over or percent reduction vs vehicle control (150 mg/kg BIDx1, 72 h): 66.09 ± 6.29 fold or %
Eif2ak2 fold increase over or percent reduction vs vehicle control (150 mg/kg BIDx1, 72 h): 5.36 ± 11.08 fold or %
Elk1 fold increase over or percent reduction vs vehicle control (150 mg/kg BIDx1, 72 h): 19.15 ± 11.29 fold or %
F2r fold increase over or percent reduction vs vehicle control (150 mg/kg BIDx1, 72 h): 14.84 ± 13.77 fold or %
Fadd fold increase over or percent reduction vs vehicle control (150 mg/kg BIDx1, 72 h): 1.25 ± 0.13 fold or %
Fasl fold increase over or percent reduction vs vehicle control (150 mg/kg BIDx1, 72 h): 42.85 ± 19.54 fold or %
Fos fold increase over or percent reduction vs vehicle control (150 mg/kg BIDx1, 72 h): 86.19 ± 1.00 fold or %
Hmox1 fold increase over or percent reduction vs vehicle control (150 mg/kg BIDx1, 72 h): 1.03 ± 0.18 fold or %
Icam1 fold increase over or percent reduction vs vehicle control (150 mg/kg BIDx1, 72 h): 1.07 ± 0.18 fold or %
Ifng fold increase over or percent reduction vs vehicle control (150 mg/kg BIDx1, 72 h): 22.04 ± 33.20 fold or %
Ikbkb fold increase over or percent reduction vs vehicle control (150 mg/kg BIDx1, 72 h): 1.24 ± 0.27 fold or %
Ikbke fold increase over or percent reduction vs vehicle control (150 mg/kg BIDx1, 72 h): 2.05 ± 40.34 fold or %
Ikbkg fold increase over or percent reduction vs vehicle control (150 mg/kg BIDx1, 72 h): 1.06 ± 0.32 fold or %
Il1a fold increase over or percent reduction vs vehicle control (150 mg/kg BIDx1, 72 h): 63.60 ± 11.55 fold or %
Il1b fold increase over or percent reduction vs vehicle control (150 mg/kg BIDx1, 72 h): 84.09 ± 6.24 fold or %
Il1r1 fold increase over or percent reduction vs vehicle control (150 mg/kg BIDx1, 72 h): 9.26 ± 29.81 fold or %
Il10 fold increase over or percent reduction vs vehicle control (150 mg/kg BIDx1, 72 h): 12.42 ± 41.31 fold or %
Irak1 fold increase over or percent reduction vs vehicle control (150 mg/kg BIDx1, 72 h): 4.37 ± 14.84 fold or %
Irak2 fold increase over or percent reduction vs vehicle control (150 mg/kg BIDx1, 72 h): 1.07 ± 0.14 fold or %
Irf1 fold increase over or percent reduction vs vehicle control (150 mg/kg BIDx1, 72 h): 1.06 ± 0.20 fold or %
Jun fold increase over or percent reduction vs vehicle control (150 mg/kg BIDx1, 72 h): 26.30 ± 10.41 fold or %
Lta fold increase over or percent reduction vs vehicle control (150 mg/kg BIDx1, 72 h): 26.12 ± 35.38 fold or %
Ltbr fold increase over or percent reduction vs vehicle control (150 mg/kg BIDx1, 72 h): 1.05 ± 0.08 fold or %
Map3k1 fold increase over or percent reduction vs vehicle control (150 mg/kg BIDx1, 72 h): 1.25 ± 0.28 fold or %
Mapk3 fold increase over or percent reduction vs vehicle control (150 mg/kg BIDx1, 72 h): 1.22 ± 0.17 fold or %
Myd88 fold increase over or percent reduction vs vehicle control (150 mg/kg BIDx1, 72 h): 37.76 ± 10.69 fold or %
Nfkb1 fold increase over or percent reduction vs vehicle control (150 mg/kg BIDx1, 72 h): 1.06 ± 0.05 fold or %
Nfkb2 fold increase over or percent reduction vs vehicle control (150 mg/kg BIDx1, 72 h): 1.30 ± 0.23 fold or %
Nfkbia fold increase over or percent reduction vs vehicle control (150 mg/kg BIDx1, 72 h): 6.09 ± 32.11 fold or %
Nod1 fold increase over or percent reduction vs vehicle control (150 mg/kg BIDx1, 72 h): 1.26 ± 0.26 fold or %
Raf1 fold increase over or percent reduction vs vehicle control (150 mg/kg BIDx1, 72 h): 4.12 ± 9.21 fold or %
Rel fold increase over or percent reduction vs vehicle control (150 mg/kg BIDx1, 72 h): 1.09 ± 0.23 fold or %
Rela fold increase over or percent reduction vs vehicle control (150 mg/kg BIDx1, 72 h): 1.01 ± 0.08 fold or %
Relb fold increase over or percent reduction vs vehicle control (150 mg/kg BIDx1, 72 h): 3.68 ± 22.32 fold or %
Ripk1 fold increase over or percent reduction vs vehicle control (150 mg/kg BIDx1, 72 h): 1.11 ± 0.09 fold or %
Ripk2 fold increase over or percent reduction vs vehicle control (150 mg/kg BIDx1, 72 h): 29.79 ± 5.69 fold or %
Slc20a1 fold increase over or percent reduction vs vehicle control (150 mg/kg BIDx1, 72 h): 36.31 ± 7.52 fold or %
Smad3 fold increase over or percent reduction vs vehicle control (150 mg/kg BIDx1, 72 h): 1.09 ± 0.18 fold or %
Stat1 fold increase over or percent reduction vs vehicle control (150 mg/kg BIDx1, 72 h): 1.20 ± 0.20 fold or %
Tbk1 fold increase over or percent reduction vs vehicle control (150 mg/kg BIDx1, 72 h): 1.17 ± 0.15 fold or %
Tlr1 fold increase over or percent reduction vs vehicle control (150 mg/kg BIDx1, 72 h): 1.52 ± 0.56 fold or %
Tlr2 fold increase over or percent reduction vs vehicle control (150 mg/kg BIDx1, 72 h): 1.05 ± 0.16 fold or %
Tlr3 fold increase over or percent reduction vs vehicle control (150 mg/kg BIDx1, 72 h): 5.46 ± 14.97 fold or %
Tlr4 fold increase over or percent reduction vs vehicle control (150 mg/kg BIDx1, 72 h): 1.13 ± 0.27 fold or %
Tlr6 fold increase over or percent reduction vs vehicle control (150 mg/kg BIDx1, 72 h): 1.25 ± 0.31 fold or %
Tlr9 fold increase over or percent reduction vs vehicle control (150 mg/kg BIDx1, 72 h): 1.78 ± 0.32 fold or %
Tnf fold increase over or percent reduction vs vehicle control (150 mg/kg BIDx1, 72 h): 3.41 ± 24.15 fold or %
Tnfaip3 fold increase over or percent reduction vs vehicle control (150 mg/kg BIDx1, 72 h): 10.12 ± 40.91 fold or %
Tnfrsf1a fold increase over or percent reduction vs vehicle control (150 mg/kg BIDx1, 72 h): 1.18 ± 0.13 fold or %
Tnfrsf1b fold increase over or percent reduction vs vehicle control (150 mg/kg BIDx1, 72 h): 1.52 ± 0.29 fold or %
Tnfrsf10b fold increase over or percent reduction vs vehicle control (150 mg/kg BIDx1, 72 h): 1.17 ± 0.22 fold or %
Tnfsf10 fold increase over or percent reduction vs vehicle control (150 mg/kg BIDx1, 72 h): 1.09 ± 0.21 fold or %
Tnfsf14 fold increase over or percent reduction vs vehicle control (150 mg/kg BIDx1, 72 h): 1.34 ± 0.30 fold or %
Tollip fold increase over or percent reduction vs vehicle control (150 mg/kg BIDx1, 72 h): 1.11 ± 0.10 fold or %
Tradd fold increase over or percent reduction vs vehicle control (150 mg/kg BIDx1, 72 h): 1.10 ± 0.24 fold or %
Traf2 fold increase over or percent reduction vs vehicle control (150 mg/kg BIDx1, 72 h): 1.17 ± 0.13 fold or %
Traf3 fold increase over or percent reduction vs vehicle control (150 mg/kg BIDx1, 72 h): 3.24 ± 6.50 fold or %
Traf5 fold increase over or percent reduction vs vehicle control (150 mg/kg BIDx1, 72 h): 1.24 ± 0.14 fold or %
Traf6 fold increase over or percent reduction vs vehicle control (150 mg/kg BIDx1, 72 h): 1.17 ± 0.24 fold or %
Zap70 fold increase over or percent reduction vs vehicle control (150 mg/kg BIDx1, 72 h): 1.52 ± 0.48 fold or %
Agt fold increase over or percent reduction vs vehicle control (150 mg/kg BIDx1, […]): 50.51 ± 41.92 fold or %
Akt1 fold increase over or percent reduction vs vehicle control (150 mg/kg BIDx1, […]): 8.16 ± 7.88 fold or %
Atf1 fold increase over or percent reduction vs vehicle control (150 mg/kg BIDx1, […]): 1.13 ± 0.30 fold or %
Atf2 fold increase over or percent reduction vs vehicle control (150 mg/kg BIDx1, […]): 1.00 ± 0.20 fold or %
Bcl2a1a fold increase over or percent reduction vs vehicle control (150 mg/kg BIDx1, […]): 4.90 ± 3.38 fold or %
Bcl2l1 fold increase over or percent reduction vs vehicle control (150 mg/kg BIDx1, […]): 1.00 ± 0.07 fold or %
Bcl3 fold increase over or percent reduction vs vehicle control (150 mg/kg BIDx1, […]): 14.36 ± 16.67 fold or %
Bcl10 fold increase over or percent reduction vs vehicle control (150 mg/kg BIDx1, […]): 1.18 ± 0.09 fold or %
Birc3 fold increase over or percent reduction vs vehicle control (150 mg/kg BIDx1, […]): 1.10 ± 0.26 fold or %
Card10 fold increase over or percent reduction vs vehicle control (150 mg/kg BIDx1, […]): 40.14 ± 8.96 fold or %
Card11 fold increase over or percent reduction vs vehicle control (150 mg/kg BIDx1, […]): 1.85 ± 0.30 fold or %
Casp1 fold increase over or percent reduction vs vehicle control (150 mg/kg BIDx1, […]): 1.82 ± 0.71 fold or %
Casp8 fold increase over or percent reduction vs vehicle control (150 mg/kg BIDx1, […]): 1.14 ± 0.07 fold or %
Ccl2 fold increase over or percent reduction vs vehicle control (150 mg/kg BIDx1, […]): 1.47 ± 0.35 fold or %
